Reference: patent US11040038B2, “Methods for treating diseases associated with abnormal ACVR1 expression and ACVR1 inhibitors for use in the same” (Sumitomo Dainippon Pharma Oncology, Inc., priority 2018, dated 2021)
Where two headings read alike, the source gives them in different places.

Assays:
[1] = system: ACVR1 mutant (G328V mutated cell line) and wild type DIPG cell lines; assay: Proliferation assay against DIPG cell lines; assay type: cell-based; conditions: ACVR1 G328V mutant vs wild type DIPG cell lines
Protocol: Compound 2 was tested in a proliferation assay against ACVR1 mutant (G328V mutated cell line) and wild type DIPG cell lines in vitro.

[2] = Pharmacokinetic and tissue distribution study; assay type: in vivo, CD-1 male mice; conditions: mice, 20 mg/kg PO; for Cmax / Tmax / half-life / AUC(0-t) / AUC: male, CD-1, mouse; for AUC: read-out: AUC0-?
Protocol: An additional pharmacokinetic and tissue distribution study was conducted to comprehensively evaluate Compound 2 exposure in multiple mouse organs. CD-1 male mice were dosed 20 mg/kg, PO with Compound 2 formulated in 20% solutol and 80% saline. Plasma and organs were collected at nine (9) time points and the drug concentrations were determined by LC-MS/MS. […] The results confirmed exposure in clinically relevant target organs, including brain and liver (Table 7).

COc1cc(Nc2nccc(Nc3cccnc3-c3ccccn3)n2)ccc1N1CCN(C)CC1 [Compound 2, N^4-(2,2′-bipyridin-3-yl)-N^2-(3-methoxy-4-(4-methylpiperazin-1-yl)phenyl)pyrimidine-2,4-diamine]
Activity in proliferation assay [1]: selective activity against the mutated cell line
Cmax ([2]; adrenals): 13800 ng/g
Tmax ([2]; adrenals): 1.3 h
half-life ([2]; adrenals): 3.3 h
Cmax ([2]; bladder): 2220 ng/g
Tmax ([2]; bladder): 3 h
half-life ([2]; bladder): 3.1 h
AUC(0-t) ([2]; bone marrow): 1940 ng·h/mL
Cmax ([2]; bone marrow): 240 ng/mL
Tmax ([2]; bone marrow): 4.5 h
half-life ([2]; bone marrow): 4.6 h
AUC ([2]; bone marrow): 2020 ng·h/mL
Cmax ([2]; brain): 1690 ng/g
Tmax ([2]; brain): 3.2 h
half-life ([2]; brain): 2.6 h
Cmax ([2]; intestine): 20200 ng/g
Tmax ([2]; intestine): 1.8 h
half-life ([2]; intestine): 3.6 h
Cmax ([2]; kidney): 31100 ng/g
Tmax ([2]; kidney): 2.3 h
half-life ([2]; kidney): 2.5 h
Cmax ([2]; liver): 79900 ng/g
Tmax ([2]; liver): 0.8 h
half-life ([2]; liver): 3.3 h
Cmax ([2]; lung): 18300 ng/g
Tmax ([2]; lung): 1.3 h
half-life ([2]; lung): 2.8 h
Cmax ([2]; pancreas): 10600 ng/g
Tmax ([2]; pancreas): 3.2 h
half-life ([2]; pancreas): 2.6 h
AUC(0-t) ([2]; plasma): 2340 ng·h/mL
Cmax ([2]; plasma): 378 ng/mL
Tmax ([2]; plasma): 1 h
half-life ([2]; plasma): 3.8 h
AUC ([2]; plasma): 2380 ng·h/mL
Cmax ([2]; spleen): 36200 ng/g
Tmax ([2]; spleen): 6 h
half-life ([2]; spleen): 13.3 h
Cmax ([2]; stomach): 17300 ng/g
Tmax ([2]; stomach): 0.5 h
half-life ([2]; stomach): 3.6 h
AUC0-? ([2]; adrenals): 76421 ng*h/G
AUCLast ([2]; adrenals): 75782 ng*h/G
AUC0-? ([2]; bladder): 17546 ng*h/G
AUCLast ([2]; bladder): 17386 ng*h/G
AUC0-? ([2]; brain): 7756 ng*h/G
AUCLast ([2]; brain): 7729 ng*h/G
AUC0-? ([2]; intestine): 52421 ng*h/G
AUCLast ([2]; intestine): 51891 ng*h/G
AUC0-? ([2]; kidney): 152790 ng*h/G
AUCLast ([2]; kidney): 152492 ng*h/G
AUC0-? ([2]; liver): 286210 ng*h/G
AUCLast ([2]; liver): 284827 ng*h/G
AUC0-? ([2]; lung): 76908 ng*h/G
AUCLast ([2]; lung): 76622 ng*h/G
AUC0-? ([2]; pancreas): 53297 ng*h/G
AUCLast ([2]; pancreas): 53163 ng*h/G
AUC0-? ([2]; spleen): 627382 ng*h/G
AUCLast ([2]; spleen): 406119 ng*h/G
AUC0-? ([2]; stomach): 32717 ng*h/G
AUCLast ([2]; stomach): 32467 ng*h/G
